# Patent US20040235863A1, “Morpholine-bridged pyrazolopyridine derivatives” (priority 2001, published 2004)
# Tested on: rabbit aorta rings contracted with phenylephrine
# Assay: Vasorelaxant effect in vitro
# Design: species or system Rabbits
# Conditions: Oryctolagus cuniculus; isolated rabbit aorta rings, phenylephrine-induced contraction, concentration reducing height of contraction by 50%
# Method: Vasorelaxant Effect in Vitro
# Rabbits are stunned by a blow to the back of the neck and are exsanguinated. The aorta is removed, freed of adherent tissue, divided into rings 1.5 mm wide and put singly under tension in 5 ml organ baths containing carbogen-gassed Krebs-Henseleit solution at 37° C. with the following composition (mM): NaCl: 119; KCl: 4.8; CaCl2×2H2O: 1; MgSO4×7H2O: 1.4; KH2PO4: 1.2; NaHCO3: 25; glucose: 10. The force of contraction is detected with Statham UC2 cells, amplified and digitized via A/D converters (DAS-1802 HC, Keithley Instruments Munich) and recorded in parallel on chart recorders. A contraction is generated by adding phenylephrine to the bath cumulatively in increasing concentration. After several control cycles, the substance to be investigated is investigated in each further run in increasing dosage in each case, and the height of the contraction is compared with the height of the contraction reached in the last preceding run. The concentration necessary to reduce the height of the control value by 50% (IC50) is calculated from this. The standard application volume is 5 μl, and the DMSO content in the bath solution corresponds to 0.1%.
compound,measurement,value
"Nc1nc(-c2nn(Cc3ccccc3F)c3ncccc23)ncc1N1C2CCCC1COC2 [Example 2, 2-[1-(2-Fluorobenzyl)-1H-pyrazolo[3,4-b]pyridin-3-yl]-5-(3-oxa-9-azabicyclo[3.3.1]non-9-yl)-4-pyrimidinylamine]",IC50,300 nM
